Reference: patent publication US12012628B2, “Method to elevate the amount of steviol glycosides remained in the recrystallization mother liquor of Stevia extract” (Jiangnan University, priority 2018, dated 2024)
Like-named read-outs stand apart in the source and are kept apart here.

Key:
[1] = system: lactase from Kluyveromyces fragilis (ATCC 8554); test: Lactase-catalysed hydrolysis of steviol glycosides, HPLC analysis of the reaction mixture; assay type: biochemical
Procedure: A standard curve is drawn with rebaudioside A (HPLC 99%) as a standard sample, concentrations of rebaudioside A, stevioside and rubusoside are figured out through the standard curve of rebaudioside A by means of an analysis and detection method of steviol glycosides in JECFA2016.
A conversion rate calculation formula of stevioside: α=[(C0−Ct)/C0]×100% (1)
(§1) 250 g/L glycoside liquid is prepared with deionized water from Stevia sugar (containing 22% of rebaudioside A, 68% of stevioside and 3% of rebaudioside C in percentages by mass). The lactase freeze-dried powder obtained in Example 1 is added to reach an enzyme concentration of 60 U/g stevioside for reaction at 35° C. for 2 h.
as §1, with “of 150” for “of 60”, “for 24” for “for 2”
100 g/L glycoside liquid is prepared from the Stevia mother liquor glycosides (containing 47% of rebaudioside A, 19% of stevioside and 7% of rebaudioside C in percentages by mass). The lactase freeze-dried powder obtained in Example 1 is added to reach an enzyme concentration of 30 U/g stevioside for reaction at 25° C. for 0.5 h. […] It can be seen that a conversion rate of stevioside will drop at a low temperature, a low enzyme concentration and a short reaction time.
A 200 g/L stevioside solution is prepared by dissolving 20 g of stevioside (97%, HPLC) in 100 mL of deionized water into a reactor. The lactase freeze-dried powder obtained in Example 1 is added to reach an enzyme concentration of 90 U/g stevioside for reaction at 35° C. for 2 h.
The lactase freeze-dried powder obtained in Example 1 is added to a mixed glycoside solution (50% of stevioside and 50% of rebaudioside A) with a solid content of 200 g/L to reach an enzyme concentration of 200 U/g stevioside, stirred at 35° C. for 2 h.
A 10 g/L rebaudioside A solution is prepared by dissolving 1 g of rebaudioside A (99%, HPLC) in 100 mL of deionized water and preheated for 30 min at 30° C. The lactase freeze-dried powder obtained in Example 1 is added to reach an enzyme concentration of 100 U/g rebaudioside A for reaction for 24 h at 30° C.

[2] = n-butyl alcohol/water partition coefficients of steviol glycosides; assay type: physicochemical
From the text: The n-butyl alcohol/water partition coefficients of several major steviol glycosides in the mother liquor glycosides are shown in Table 1. It can be seen in Table 1 that the polarity difference between rebaudioside A and rebaudioside C and rubusoside is far larger than the polarity difference between rebaudioside A and rebaudioside C and stevioside; and thus, after stevioside is converted into rubusoside, rebaudioside A and rebaudioside C can be separated out of a mixture more easily than before.

[3] = molecular target: T1, lactase (Maxilact LG 2000) from Kluyveromyces lactis (Kluyveromyces lactis, UniProt P00723); test: Hydrolysis of stevioside in Stevia sugar by commercial lactase, HPLC; assay type: biochemical; settings: Stevia sugar 450 g/L, pH5 buffer, 100 U/g stevioside, 30° C.
T1 construct: purchased Royal DSM Maxilact LG 2000
Procedure: 450 g/L glycoside liquid is prepared with a pH5 phosphate-potassium phosphate buffer solution (50 mmol/L) from Stevia sugar (containing 22% of rebaudioside A, 68% of stevioside and 3% of rebaudioside C in percentages by mass). […]

[4] = molecular target: T2, lactase (Lactozym 3000 L HP-G) from Kluyveromyces lactis (Kluyveromyces lactis, UniProt P00723); test: as above; assay type: biochemical; settings: Stevia sugar 450 g/L, pH5 buffer; 100 U/g stevioside; 30° C., 2 h
T2 construct: purchased Novozymes Lactozym 3000 L HP-G
Procedure: (§2) 450 g/L glycoside liquid is prepared with a pH5 phosphate-potassium phosphate buffer solution (50 mmol/L) from Stevia sugar (containing 22% of rebaudioside A, 68% of stevioside and 3% of rebaudioside C in percentages by mass). The lactase (trade name: Lactozym 3000 L HP-G, purchased from Novozymes company in China) from Kluyveromyces lactis is added to reach an enzyme concentration of 100 U/g stevioside for reaction at 30° C. for 2 h.

[5] = molecular target: lactase from Aspergillus niger (ATCC 9029) (Aspergillus niger, UniProt P29853); test: Hydrolysis of stevioside in Stevia sugar by lactase, HPLC; assay type: biochemical; settings: Stevia sugar 450 g/L, pH5 buffer; 100 U/g stevioside; 30° C., 2 h
Procedure: as §2, with “lactase” for “lactase (trade name: Lactozym 3000 L HP-G, purchased”, “Aspergillus niger (ATCC® 9029™)” for “Novozymes company in China) from Kluyveromyces lactis”

[6] = molecular target: T3, lactase (Lactozym Pure 7500 L) (Kluyveromyces lactis, UniProt P00723); test: Hydrolysis of stevioside in Stevia sugar by commercial lactase, HPLC; assay type: biochemical; settings: Stevia sugar 450 g/L, pH5 buffer; 100 U/g stevioside; 30° C., 2 h
T3 construct: purchased Novozymes Lactozym Pure 7500 L
Procedure: as §2, with “(Lactozym Pure 7500 L,” for “(trade name: Lactozym 3000 L HP-G,”, “China)” for “China) from Kluyveromyces lactis”

T1 sequence (P00723 whole entry): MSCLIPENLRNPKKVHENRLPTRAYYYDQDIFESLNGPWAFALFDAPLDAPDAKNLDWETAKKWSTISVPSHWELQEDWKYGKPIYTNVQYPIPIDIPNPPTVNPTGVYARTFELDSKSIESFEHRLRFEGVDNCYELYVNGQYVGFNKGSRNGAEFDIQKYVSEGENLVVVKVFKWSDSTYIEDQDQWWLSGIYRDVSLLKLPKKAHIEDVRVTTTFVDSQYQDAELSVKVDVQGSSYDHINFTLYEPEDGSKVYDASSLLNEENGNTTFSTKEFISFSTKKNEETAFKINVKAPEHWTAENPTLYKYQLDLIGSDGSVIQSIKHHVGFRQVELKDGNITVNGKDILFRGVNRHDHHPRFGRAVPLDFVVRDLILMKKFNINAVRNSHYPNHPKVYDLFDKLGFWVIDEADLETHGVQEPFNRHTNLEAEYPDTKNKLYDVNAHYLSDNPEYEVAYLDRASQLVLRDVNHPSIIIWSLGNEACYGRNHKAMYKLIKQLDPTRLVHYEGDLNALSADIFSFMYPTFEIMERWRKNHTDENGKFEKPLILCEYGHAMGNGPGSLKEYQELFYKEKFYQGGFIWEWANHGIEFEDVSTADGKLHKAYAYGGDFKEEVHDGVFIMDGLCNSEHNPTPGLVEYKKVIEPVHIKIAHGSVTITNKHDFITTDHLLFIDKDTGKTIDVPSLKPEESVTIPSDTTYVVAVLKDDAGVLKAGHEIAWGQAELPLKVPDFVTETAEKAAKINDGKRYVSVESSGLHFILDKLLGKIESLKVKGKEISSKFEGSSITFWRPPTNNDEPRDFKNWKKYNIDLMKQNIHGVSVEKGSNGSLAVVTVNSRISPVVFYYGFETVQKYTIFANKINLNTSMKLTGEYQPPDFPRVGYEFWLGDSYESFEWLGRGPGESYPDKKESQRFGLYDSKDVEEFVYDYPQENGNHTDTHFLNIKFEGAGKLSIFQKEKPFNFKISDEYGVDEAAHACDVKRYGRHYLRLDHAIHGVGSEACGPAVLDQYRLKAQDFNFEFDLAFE
lactase from Aspergillus niger (ATCC 9029), sequence (P29853 20-1006): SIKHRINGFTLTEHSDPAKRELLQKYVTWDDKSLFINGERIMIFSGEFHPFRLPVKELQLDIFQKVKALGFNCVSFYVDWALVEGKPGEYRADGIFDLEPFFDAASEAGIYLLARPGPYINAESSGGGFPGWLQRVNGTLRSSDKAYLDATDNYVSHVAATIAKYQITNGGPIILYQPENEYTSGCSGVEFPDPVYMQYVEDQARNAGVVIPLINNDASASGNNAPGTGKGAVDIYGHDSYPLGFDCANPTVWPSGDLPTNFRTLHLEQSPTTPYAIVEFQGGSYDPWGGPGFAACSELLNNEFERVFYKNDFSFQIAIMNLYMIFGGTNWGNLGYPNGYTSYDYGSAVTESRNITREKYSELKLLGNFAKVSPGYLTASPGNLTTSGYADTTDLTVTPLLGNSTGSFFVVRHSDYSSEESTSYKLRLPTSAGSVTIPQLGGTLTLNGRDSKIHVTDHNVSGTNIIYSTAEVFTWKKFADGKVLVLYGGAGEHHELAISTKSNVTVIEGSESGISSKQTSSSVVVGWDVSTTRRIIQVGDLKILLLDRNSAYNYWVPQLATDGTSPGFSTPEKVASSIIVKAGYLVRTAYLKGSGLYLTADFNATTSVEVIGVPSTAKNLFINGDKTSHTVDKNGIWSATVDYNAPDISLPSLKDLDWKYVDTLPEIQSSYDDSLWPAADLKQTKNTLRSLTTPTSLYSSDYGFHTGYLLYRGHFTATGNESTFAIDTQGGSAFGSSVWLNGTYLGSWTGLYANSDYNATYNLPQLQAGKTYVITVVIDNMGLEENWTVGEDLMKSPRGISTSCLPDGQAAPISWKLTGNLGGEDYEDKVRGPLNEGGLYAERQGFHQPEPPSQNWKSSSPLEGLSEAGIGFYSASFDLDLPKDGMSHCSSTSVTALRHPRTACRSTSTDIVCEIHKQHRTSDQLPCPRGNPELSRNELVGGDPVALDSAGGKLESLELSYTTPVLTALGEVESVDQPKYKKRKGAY
T3 sequence (P00723 whole entry): as the sequence (P00723 whole entry) above
T2 sequence (P00723 whole entry): as above

Compound: C=C1C[C@@]23CC[C@H]4[C@@](C)(CCC[C@@]4(C)C(=O)O[C@@H]4O[C@H](CO)[C@@H](O)[C@H](O)[C@H]4O)[C@@H]2CC[C@]1(O[C@@H]1O[C@H](CO)[C@@H](O)[C@H](O[C@@H]2O[C@H](CO)[C@@H](O)[C@H](O)[C@H]2O)[C@H]1O[C@@H]1O[C@H](CO)[C@@H](O)[C@H](O)[C@H]1O)C3 [rebaudioside A]
- reaction of rebaudioside A with lactase ([1]; 10 g/L rebaudioside A, 100 U/g rebaudioside A, 30° C., 24 h): did not react
- reaction of rebaudioside A with lactase in mixture with stevioside ([1]; 50 wt % rebaudioside A + 50 wt % stevioside, 200 U/g stevioside, 2 h (FIG. 4A)): does not react
- n-butyl alcohol/water partition coefficients [2]: 0.09

Compound: C=C1C[C@@]23CC[C@H]4[C@@](C)(CCC[C@@]4(C)C(=O)O[C@@H]4O[C@H](CO)[C@@H](O)[C@H](O)[C@H]4O)[C@@H]2CC[C@]1(O[C@@H]1O[C@H](CO)[C@@H](O)[C@H](O)[C@H]1O)C3 [rubusoside]
- n-butyl alcohol/water partition coefficients [2]: 3.5

Compound: C=C1C[C@@]23CC[C@H]4[C@@](C)(CCC[C@@]4(C)C(=O)O[C@@H]4O[C@H](CO)[C@@H](O)[C@H](O)[C@H]4O)[C@@H]2CC[C@]1(O[C@@H]1O[C@H](CO)[C@@H](O)[C@H](O)[C@H]1O[C@@H]1O[C@H](CO)[C@@H](O)[C@H](O)[C@H]1O)C3 [stevioside]
- conversion of stevioside ([3]; 2 h): not converted
- product of the reaction of stevioside ([3]; 20 h): steviolbioside is produced
- conversion rate of stevioside ([1]; 50% stevioside + 50% rebaudioside A, 200 g/L, 200 U/g stevioside, 35° C., 2 h): 99.5%
- conversion rate of stevioside ([1]; 200 g/L stevioside (97%) solution, 90 U/g stevioside, 35° C., 2 h): 98.9%
- conversion rate of stevioside ([1]; Stevia mother liquor glycosides 100 g/L (19% stevioside), 30 U/g stevioside, 25° C., 0.5 h): 72.7%
- conversion rate of stevioside ([1]; Stevia sugar 250 g/L (68% stevioside), 60 U/g stevioside, 35° C., 2 h): 98.3%
- conversion rate of stevioside ([1]; Stevia sugar 250 g/L (68% stevioside), 150 U/g stevioside, 35° C., 24 h): 99.5%
- conversion of stevioside [4]: not converted
- n-butyl alcohol/water partition coefficients ([2]; n-butyl alcohol/water): 0.36
- content of stevioside in the reaction mixture [5]: no change
- conversion of stevioside [6]: not converted

Compound: rebaudioside C
- n-butyl alcohol/water partition coefficients [2]: 0.2
